Reference: patent US7459434B2, “Peptide interacting with anti-apoptotic proteins of the Bcl-2 family” (Les Laboratories Servier, priority 2003, dated 2008)
No end group written: not given here.

Key:
[1] = molecular target: Bcl-XL (Homo sapiens, UniProt Q07817); assay: Fluorescence polarisation, Kd of peptide with GST-Bcl-XL; assay type: binding; settings: 15 nM peptide labelled with fluorescein at the N-terminal end; GST-Bcl-XL 1 nM to 5 μM; pH 7.4; FIG. 2; read-out: Kd obtained with Bcl-XL
Description: (§1) 2) Fluorescence Polarisation: Determination of the Kd of the Interaction Between the Peptide Obtained in Example 1 and the Anti-Apoptotic Protein
(§2) A 15 nM solution of the peptide obtained in Example 1 labelled with fluorescein at the N-terminal end is mixed with a solution containing the fusion protein GST-Bcl-XL or GST-Bcl-W at a concentration varying from 1 nM to 5 μM in a buffer containing Na2HPO4 20 mM pH 7.4, EDTA 1 mM, NaCl 50 mM, pluronic acid F-68 0.05%. The fluorescence polarisation is then measured by the En Vision apparatus (Packard Perkin-Elmer).

[2] = molecular target: T1, Bcl-W (Homo sapiens, UniProt Q92843); assay: Fluorescence polarisation, Kd of peptide with GST-Bcl-W; assay type: binding; settings: 15 nM peptide labelled with fluorescein at the N-terminal end; GST-Bcl-W 1 nM to 5 μM; pH 7.4; FIG. 3; read-out: Kd obtained with Bcl-W
T1 sequence (Q92843 1-193): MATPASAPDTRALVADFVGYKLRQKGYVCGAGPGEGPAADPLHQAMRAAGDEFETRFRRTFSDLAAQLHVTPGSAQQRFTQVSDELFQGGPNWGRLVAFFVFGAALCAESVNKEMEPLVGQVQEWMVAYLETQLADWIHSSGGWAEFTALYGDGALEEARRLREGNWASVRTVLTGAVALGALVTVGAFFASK
Description: as §1, §2

Sequence of Bcl-XL (Q07817 whole entry, species assumed): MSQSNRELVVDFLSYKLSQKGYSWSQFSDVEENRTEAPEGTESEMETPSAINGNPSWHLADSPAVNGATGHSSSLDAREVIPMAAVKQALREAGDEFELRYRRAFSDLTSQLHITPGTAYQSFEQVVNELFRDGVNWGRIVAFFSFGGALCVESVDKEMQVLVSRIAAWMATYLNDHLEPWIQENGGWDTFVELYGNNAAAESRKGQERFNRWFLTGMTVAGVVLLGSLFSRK

- Kd [1]: 215 nM
- Kd [2]: 411 nM
Sequence: DTRRSMVFARHLREVGDEFRSR [peptide obtained in Example 1]
